Experimental data from PMC8026400, “Osmium–arene complexes with high potency towards Mycobacterium tuberculosis” (Metallomics: Integrated Biometal Science, 2021).
In brackets after ≈: the same amount, converted by molar mass.

How the values were obtained:
Mtb [1] = conditions: comparison values, no reference given; cited from earlier work
Mtb H37Rv = assay: MIC against Mtb H37Rv, resazurin microtitre assay; assay type: cell-based, Mycobacterium tuberculosis; conditions: 7-day exposure, Middlebrook 7H9 broth, 0.2% glycerol, 0.05% Tween 80, 10% ADC, three biological repeats
[2] = test system: MRC5 (human foetal lung fibroblast) cells; assay: Antiproliferative activity against human cell line, SRB assay; assay type: cell-based; conditions: 24 h drug exposure and 72 h recovery in drug-free medium
Procedure: MRC5 (human foetal lung fibroblast) cell lines were obtained from Public Health England (mycoplasma-free status confirmed at six-monthly intervals by internal and external screening). They were thawed upon receipt and the supernatant removed after centrifugation (1000 rpm, 5 min). Cells were re-suspended in DMEM culture medium (supplemented with 10% v/v FCS, 1% penicillin/streptomycin, and 1% L-glutamine) and grown as adherent monolayers at 310 K in a 5% CO2 humidified atmosphere. Cells were passaged using trypsin/EDTA after reaching ∼90% confluence. Trypsin activity was quenched by addition of excess medium, and the single-cell suspension passaged twice weekly. MRC5 fibroblasts were discarded after five passages.
Briefly, 5 × 10^3 cells (MRC5) were seeded in a 96-well plate using 0.15 mL of culture medium. After 48 h pre-incubation at 310 K, the supernatant was removed and cells exposed to six concentrations (0–100 µM) of osmium complex, for which exact concentrations were determined using ICP-OES (calibration standards for Os freshly prepared in 3.6% v/v nitric acid containing 100 mg L^–1 ascorbic acid and 10 mM thiourea). DMSO was used to aid solubility of Os complexes, but never exceeded 0.5% v/v in the final culture medium. Cells were exposed to Os complexes for 24 h, and then washed with PBS and allowed 72 h recovery time in drug-free medium. Cell viability was determined using the sulforhodamine B (SRB) assay. Cells were fixed using 50 µL of 50% TCA, incubated at 277 K for 1 h, and then stained using SRB dye (0.4% dye in 1% acetic acid). After 30 min, excess dye was removed by acetic acid washing, and then the stain liberated using Tris base (10 mM, pH 10.5). Absorbance was measured using a Thermo Scientific Multiskan FC microplate reader fitted with a 492-nm filter. Data were processed using Microsoft Excel and are reported as percentage survival relative to the untreated control. Sigmoidal dose/response curves were fitted using Origin 2016 to determine IC50. Data were acquired as duplicate of triplicate experiments, with a positive control of cisplatin (CDDP).

Mtb [3] = assay: Minimum bactericidal concentration against Mtb (CFU plating); assay type: cell-based, Mycobacterium tuberculosis; conditions: for bactericidal character against actively growing Mtb: from correlation of MBC with MIC; for MBC (minimal bactericidal concentration): lowest concentration with no CFUs on 7H10 medium
Procedure: The minimum bactericidal activity (MBC) was determined by setting up a microtitre plate as performed for the MIC determination. Instead of adding resazurin, each well from the microtitre plate was plated on to solid 7H10 medium and the CFUs were determined after incubation at 37°C. The lowest concentration at which no CFUs were counted was taken as the MBC. The MBCs were carried out with three independent experimental repeats.

| Compound | MIC (Mtb H37Rv) | IC50 [2] | also measured |
| --- | --- | --- | --- |
| CC[C@@H](CO)NCCN[C@@H](CC)CO [ethambutol] | – | – | MIC of current clinical TB drugs (Mtb [1]): ~5 µM |
| CN(C)c1ccc(N=Cc2ccccn2)cc1.Cc1ccc(C(C)C)cc1.F[P-](F)(F)(F)(F)F.[I][Os+] [Complex 6] | 7.81 µM | 13 ± 2 µM | – |
| Cc1ccc(C(C)C)cc1.F[P-](F)(F)(F)(F)F.[I][Os+].c1ccc(N=Nc2ccccn2)cc1 [Complex 10] | 5 µM | 0.79 ± 0.06 µM | – |
| Cc1ccc(C(C)C)cc1.Clc1ccc(N=Nc2ccccc2)nc1.F[P-](F)(F)(F)(F)F.[I][Os+] [Complex 14] | 62.5 µM | 16 ± 2 µM | – |
| NNC(=O)c1ccncc1 [isoniazid] | – | – | MIC of current clinical TB drugs (Mtb [1]): ~1 µM |
| CN(C)c1ccc(N=Nc2ccccn2)cc1.Cc1ccc(C(C)C)cc1.[Cl-].[I][Os+] [Complex 7] | 1.25 µM | 0.68 ± 0.03 µM | – |
| CN(C)c1ccc(N=Cc2ccccn2)cc1.Cc1ccc(C(C)C)cc1.F[P-](F)(F)(F)(F)F.[Cl][Os+] [Complex 5] | 31.25 µM | 7.6 ± 0.9 µM | – |
| CN(C)c1ccc(N=Nc2ccccn2)cc1.Cc1ccc(C(C)C)cc1.F[P-](F)(F)(F)(F)F.[Cl][Os+] [Complex 1] | 5 µM | 7.1 ± 0.2 µM | bactericidal character against actively growing Mtb (Mtb [3]): bactericidal; MBC (minimal bactericidal concentration) (Mtb [3]): 12.5 µM |
| CN(C)c1ccc(N=Nc2ccccn2)cc1.Cc1ccc(C(C)C)cc1.F[P-](F)(F)(F)(F)F.[I][Os+] [Complex 2, [Os(AzPy-NMe2)I(p-cymene)]PF6] | 1.25 µM | 0.89 ± 0.01 µM | MBC (minimal bactericidal concentration) (Mtb [3]): 6.25 µM |
| capreomycin | – | – | MIC of current clinical TB drugs (Mtb [1]): ~3 µM |
| Cc1ccc(C(C)C)cc1.F[P-](F)(F)(F)(F)F.Fc1ccc(N=Nc2ccccc2)nc1.[I][Os+] [Complex 12] | 15.6 µM | 9.1 ± 0.6 µM | – |
| F[P-](F)(F)(F)(F)F.Fc1ccc(N=Nc2ccccc2)nc1.[I][Os+].c1ccc(-c2ccccc2)cc1 [Complex 13] | 62.5 µM | 5.2 ± 0.7 µM | – |
| Brc1ccc(N=Nc2ccccc2)nc1.Cc1ccc(C(C)C)cc1.F[P-](F)(F)(F)(F)F.[Cl][Os+] [Complex 11] | 125 µM | 18 ± 1 µM | – |
| F[P-](F)(F)(F)(F)F.Oc1ccc(N=Cc2ccccn2)cc1.[I][Os+].c1ccc(-c2ccccc2)cc1 [Complex 15] | 5 µM | 13.5 ± 0.9 µM | – |
| CN(C)c1ccc(N=Nc2ccccn2)cc1.Cc1ccc(C(C)C)cc1.[I-].[I][Os+] [Complex 8] | 1.25 µM | 0.42 ± 0.01 µM | – |
| CN(C)c1ccc(N=Nc2ccccn2)cc1.F[P-](F)(F)(F)(F)F.[Cl][Os+].c1ccc(-c2ccccc2)cc1 [Complex 3] | 31.25 µM | 16.9 ± 0.1 µM | – |
| CN(C)c1ccc(N=Nc2ccccn2)cc1.F[P-](F)(F)(F)(F)F.[I][Os+].c1ccc(-c2ccccc2)cc1 [Complex 4] | 2.5 µM | 0.42 ± 0.03 µM | bactericidal character against actively growing Mtb (Mtb [3]): bactericidal; MBC (minimal bactericidal concentration) (Mtb [3]): 6.25 µM |
| CO[C@H]1/C=C/O[C@@]2(C)Oc3c(C)c(O)c4c(O)c(c(/C=N/N5CCN(C)CC5)c(O)c4c3C2=O)NC(=O)/C(C)=C\C=C\[C@H](C)[C@H](O)[C@@H](C)[C@@H](O)[C@@H](C)[C@H](OC(C)=O)[C@@H]1C [Rifampicin, reference compound] | – | – | MIC (Mtb H37Rv; Mycobacterium tuberculosis, H37RV, 168 h): 0.38 to 0.76 µM (≈ 0.313 to 0.625 µg/mL) |
| [H]/N=C(/N)N[C@H]1[C@H](O)[C@@H](O)[C@H](O[C@@H]2O[C@@H](C)[C@](O)(C=O)[C@H]2O[C@@H]2O[C@@H](CO)[C@H](O)[C@@H](O)[C@@H]2NC)[C@@H](N/C(N)=N\[H])[C@@H]1O [streptomycin] | – | – | MIC of current clinical TB drugs (Mtb [1]): ~9 µM |
| Cc1ccc(C(C)C)cc1.F[P-](F)(F)(F)(F)F.[Cl][Os+].c1ccc(N=Nc2ccccn2)cc1 [Complex 9] | 15.6 µM | 15 ± 2 µM | – |
